This is an account of results in US11724998B2, “PXR agonists and uses thereof for gut barrier dysfunction treatment and prevention” (Albert Einstein College of Medicine, priority 2017, dated 2023).

Entries after “also recorded” stand apart in the source; their conditions may differ.

Data set [1] deals with CAR, constitutive androstane receptor. Briefly: Nuclear receptor transactivation assay in Caco-2 cells (CAR). Conditions: FIG. 4. Format: cell-based. As to the method: (§1) FIG. 4. Nuclear Receptor transactivation assays in caco-2 (day 0) cells. Methods used are published (33). Assays were performed at least two times in triplicate CAR, constitutive androstane receptor; TCBOPOP, CAR ligand; LXR, Liver X receptor; T0901315, LXR ligand. n.s, not significant.
(§2) IPA/Indoles can have weak (˜2 fold) but important effects on the activation of other nuclear receptors (e.g., CAR, LXR) (33). […] Some receptors, specifically CAR and LXR, can act to induce liver steatosis (79, 83-86) and hepatocarcinogenesis (CAR) (80, 84, 87-89) and thus, avoiding excessive activation of these nuclear receptors in the context of PXR activation would be important. […] CDK5 (along with CDK2) are important kinases that phosphorylate and inhibit PXR activation (90). Accordingly, based on the data, it is unlikely that FKK5 activates PXR via inhibition of CDK5.

The subject of another data set is plated hepatocytes. Briefly: LDH release assay in plated hepatocytes. Conditions: 24 h and 48 h exposure; FIG. 1. Format: cell-based. As to the method:
FIG. 1A-1B. FKK compound cytotoxicity assay. (A) MTT cell cytotoxicity assay in LS180 cells lines (NCBI Bookshelf: world wide web ncbi.nlm.nih.gov/books/NBK144065/). […] (B) LDH release assay performed in plated hepatocytes after a 24 h and 48 h exposure. For both panels, assays were performed at least two times in triplicate.
A very unique feature of simple indole structures (FKK1-10) is that they are predicted to have very short systemic residence times limiting systemic drug exposure and any potential for off-target effects in organs other than the intestines (78).
For orientation: LDH leaks from cells whose membrane has failed.

In the next data set the target is T1, PXR LBD (Homo sapiens, UniProt O75469).
T1 construct: validated using a one-hybrid PXR LBD reporter assay; expressed in transfected cells; host or cells: Caco-2
T1 sequence (O75469 146-433 limits assumed): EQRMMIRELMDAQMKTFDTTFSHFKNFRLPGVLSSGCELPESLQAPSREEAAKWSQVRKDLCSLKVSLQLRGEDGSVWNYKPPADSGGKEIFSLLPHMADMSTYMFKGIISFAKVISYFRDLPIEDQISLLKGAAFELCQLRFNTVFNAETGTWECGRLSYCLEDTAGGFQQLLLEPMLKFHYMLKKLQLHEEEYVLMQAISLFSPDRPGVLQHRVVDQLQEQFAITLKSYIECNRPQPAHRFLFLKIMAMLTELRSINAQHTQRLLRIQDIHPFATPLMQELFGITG
Briefly: One-hybrid PXR LBD reporter gene assay in Caco-2 cells. Format: cell-based. Conditions: 24 h exposure, FIG. 3. As to the method: FIG. 3. One-hybrid PXR reporter gene assay. Performed in Caco-2 cells as a 24 h exposure to FKK5 at two different concentrations.
Background: A reporter such as luciferase makes a cellular process visible.

The subject of the next data set is LXR, Liver X receptor. As to the kind of experiment: Nuclear receptor transactivation assay in Caco-2 cells (LXR). In kind it is cell-based. Conditions: FIG. 4. As to the method: as §1, §2
For a further data set, the target named is T2, PXR (Homo sapiens, UniProt O75469).
T2 sequence (O75469 1-434): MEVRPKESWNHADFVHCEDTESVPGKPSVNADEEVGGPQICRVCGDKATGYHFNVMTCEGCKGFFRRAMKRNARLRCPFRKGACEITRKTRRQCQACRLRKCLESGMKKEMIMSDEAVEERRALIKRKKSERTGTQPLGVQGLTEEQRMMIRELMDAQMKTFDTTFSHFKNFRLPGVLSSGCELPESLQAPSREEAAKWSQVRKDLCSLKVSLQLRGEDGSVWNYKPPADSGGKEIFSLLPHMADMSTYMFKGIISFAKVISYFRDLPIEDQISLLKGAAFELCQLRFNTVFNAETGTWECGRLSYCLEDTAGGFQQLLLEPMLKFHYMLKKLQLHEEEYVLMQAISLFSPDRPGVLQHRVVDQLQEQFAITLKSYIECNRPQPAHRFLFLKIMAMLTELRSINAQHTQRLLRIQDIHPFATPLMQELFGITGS
Briefly: Isothermic titration calorimetry (ITC). Conditions: FIG. 11. Format: binding.

In another data set the test system is IL-8. As to the kind of experiment: TNF-induced IL-8 in human intestinal organoids. Format: cell-based. Conditions: initial experiment n=2, FIG. 12. From the text:
Intestinal organoids were developed using human small intestines and stem cell isolation and propagation in vitro.

The target in a further data set is CDK5/p25 enzyme (Homo sapiens, UniProt Q00535). As to the kind of experiment: ADP-Glo kinase assay with CDK5/p25 enzyme. In kind it is biochemical. Conditions: up to 20 μM. As to the method: FIG. 5. ADP-Glo kinase with CDK5/p25 enzyme. Michaelis-Menton fit of RLU values across FKK5 concentrations after enzyme and time of incubation was optimized. The fit is nearly similar with one curve describing all concentration effects. Km˜0.01483; Ki˜4.656e+099; Vmax˜53380.
CDK5/p25 enzyme, sequence (Q00535 whole entry, species assumed): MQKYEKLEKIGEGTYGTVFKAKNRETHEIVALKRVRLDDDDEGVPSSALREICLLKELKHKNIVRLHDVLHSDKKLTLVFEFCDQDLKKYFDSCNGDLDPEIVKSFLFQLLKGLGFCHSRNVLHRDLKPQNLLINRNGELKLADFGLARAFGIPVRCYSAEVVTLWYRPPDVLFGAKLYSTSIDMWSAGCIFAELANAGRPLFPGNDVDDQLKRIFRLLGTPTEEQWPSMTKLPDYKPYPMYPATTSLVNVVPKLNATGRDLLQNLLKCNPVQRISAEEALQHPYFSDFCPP
CDK5/p25 enzyme, sequence (Q15078 99-307 partner limits assumed, species assumed): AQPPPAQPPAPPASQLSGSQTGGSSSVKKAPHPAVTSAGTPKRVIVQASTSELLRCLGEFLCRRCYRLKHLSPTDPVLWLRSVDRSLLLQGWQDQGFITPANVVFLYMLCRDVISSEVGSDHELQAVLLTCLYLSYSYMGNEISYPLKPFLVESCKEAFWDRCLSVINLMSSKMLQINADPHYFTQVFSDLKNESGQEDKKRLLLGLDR
as §2
A general note: ADP-Glo first removes unused ATP, then detects ADP through luciferase.

The next data set concerns the target T3, AhR (Homo sapiens, UniProt P35869).
T3 sequence (P35869 11-848): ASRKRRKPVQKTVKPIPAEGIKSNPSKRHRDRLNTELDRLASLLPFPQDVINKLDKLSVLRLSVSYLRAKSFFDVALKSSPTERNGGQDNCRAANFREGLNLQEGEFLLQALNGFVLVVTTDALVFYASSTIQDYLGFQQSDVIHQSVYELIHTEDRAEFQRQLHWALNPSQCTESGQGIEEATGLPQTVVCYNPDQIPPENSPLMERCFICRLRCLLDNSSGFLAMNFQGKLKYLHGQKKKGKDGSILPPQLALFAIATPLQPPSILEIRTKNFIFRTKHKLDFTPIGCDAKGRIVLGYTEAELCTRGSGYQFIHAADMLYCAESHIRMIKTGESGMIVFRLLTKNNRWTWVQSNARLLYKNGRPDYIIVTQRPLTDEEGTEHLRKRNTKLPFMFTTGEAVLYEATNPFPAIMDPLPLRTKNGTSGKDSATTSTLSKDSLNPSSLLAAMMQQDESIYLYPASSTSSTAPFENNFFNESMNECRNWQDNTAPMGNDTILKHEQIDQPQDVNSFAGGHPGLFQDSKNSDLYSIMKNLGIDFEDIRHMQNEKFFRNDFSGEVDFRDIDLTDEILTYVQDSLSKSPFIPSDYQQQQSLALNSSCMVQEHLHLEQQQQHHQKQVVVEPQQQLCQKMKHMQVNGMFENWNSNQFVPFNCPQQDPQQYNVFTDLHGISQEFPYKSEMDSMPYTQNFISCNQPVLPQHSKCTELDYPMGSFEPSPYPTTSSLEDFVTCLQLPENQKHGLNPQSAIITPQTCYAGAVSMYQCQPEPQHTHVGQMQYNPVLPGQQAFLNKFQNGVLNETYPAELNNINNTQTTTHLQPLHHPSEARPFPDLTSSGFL
As to the kind of experiment: HTS nuclear receptor activation screen using LS180 cells (AhR). Conditions: data not shown. In kind it is cell-based.

For the compound `O=C(c1ccncc1)c1cc2ccccc2n1S(=O)(=O)c1ccccc1` [FKK5], in data set [1], the CAR activation result is recorded as “does not activate” and the “CAR function with increasing concentrations” value was “CAR function is inhibited”. For the same compound, the cytotoxicity in hepatocytes result with plated hepatocytes is on record as “no cytotoxicity observed”. Besides, the “activation of PXR” value at PXR LBD was around 5 fold. Also, the LXR activation result in the data set on LXR, Liver X receptor is “does not activate”. Further, on PXR, the “binding to human PXR” value is “efficient and direct binding”. For the same compound, in the data set on IL-8, the “TNF-induced IL-8 expression” value was “significant attenuation; also recorded: reduces pro-inflammatory cytokine IL-8 expression”. Moreover, the “inhibition of CDK5/p25 enzyme” value at CDK5/p25 enzyme was “does not inhibit”. Besides, the AhR activation entry at AhR is “not AhR”.
